For this experiment, the target named is T1, sterol 14-reductase (Rattus norvegicus, UniProt A0ACM8Q6X4).
T1 construct: microsome which was used as an enzyme source of sterol 14-reductase; from tissue; host or cells: liver microsomes of male Sprague-Dawley rats fed lovastatin and cholestyramine
T1 sequence (A0ACM8Q6X4 1-418): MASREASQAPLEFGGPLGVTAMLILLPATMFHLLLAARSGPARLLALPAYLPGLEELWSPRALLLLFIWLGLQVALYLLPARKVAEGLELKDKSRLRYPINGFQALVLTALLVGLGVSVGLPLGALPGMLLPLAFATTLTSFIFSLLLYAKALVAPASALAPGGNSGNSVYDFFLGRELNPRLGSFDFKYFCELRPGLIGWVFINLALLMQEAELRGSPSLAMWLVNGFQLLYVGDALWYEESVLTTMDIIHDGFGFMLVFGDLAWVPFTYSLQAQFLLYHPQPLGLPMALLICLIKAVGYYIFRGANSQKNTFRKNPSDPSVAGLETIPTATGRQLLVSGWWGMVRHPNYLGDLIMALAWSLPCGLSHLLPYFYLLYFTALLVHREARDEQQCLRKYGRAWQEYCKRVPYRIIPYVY
Description: Inhibition of sterol 14-reductase in rat liver microsomes. The experiment is classed as biochemical. Background: Liver microsomes are a subcellular fraction often used to study metabolism.

Setting [1] is: microsomes, read-out: Enzyme Activity (relative in vitro activity for sterol 14-reductase, IC50 class).
[2] abbreviates: read-out: Enzyme Activity (relative in vitro activity for sterol 14-reductase, IC50 class).

pIC50: −log10 of the molar value. Read-outs that look alike come from different tables or passages of the source.

Description: 20 Male Sprague-Dawley rats weighing from 150 to 250 g have been fed for 7 days with a diet containing 0.1% (w/w) Lovastatin and 5% (w/w) Cholestyramine. The animals were fasted for 12 hours before excising liver tissues and then sacrificed by decapitation at midnight. An aqueous solution containing 0.25M of sucrose was injected into the hepatic portal vein to remove all the blood within the liver, and then, the liver was excised. The liver was homogenated with two volumes of buffer solution A (0.1M potassium phosphate, 1 mM reduced glutathione, 0.5 mM EDTA, 20% (v/v) glycerol, pH 7.4) by repeating pestles over 10 times and then, centrifuged with 900×g for 5 minutes to give a supernatant. The supernatant was centrifuged with 12,000×g for 20 minutes. The supernatant obtained was ultracentrifuged with 105,000×g for 90 minutes to give a microsome which was used as an enzyme source of sterol 14-reductase. Assay for sterol 14-reductase was carried out as follows:
60 mmol of 4,4-dimethyl-5α-cholesta-7,14-dien-3β-ol and 5,6-dihydrodibenzo-[a,g]quinolizinium salts (compound no. 2) dissolved in DMSO were added to an assay mixture (total volume 1.0 ml) containing 2 mg of the microsomal protein, 2 mM of NADPH and 25 mg of glucose plus 20 units of glucose oxidase with preincubations under nitrogen at 37° C. for 4 min. unless otherwise specified to establish anaerobic condition. Buffer A (0.1M potassium phosphate buffer, pH 7.4, including 1 mM reduced glutathione, 0.5 mM EDTA, and 20% (v/v) glycerol) used for incubation had been equilibrated with nitrogen, and nitrogen was exchanged for air in all sealed reaction flasks prior to the start of incubations. Incubation of the complete mixture was carried out anaerobically in sealed flasks for 10 min at 37° C. unless otherwise indicated. Incubations were terminated by the addition of 1 ml of ethanolic KOH followed by heating under reflux for 10 min. Sterols were extracted four times with 4 ml of petroleum ether, and the solvent was evaporated to dryness under a nitrogen stream. The resulting residue was dissolved in 200-500 μl of n-hexane for quantification by GLC at high sensitive attenuation. The activity of sterol 14-reductase was determined with the amount of the substrate wherein the double bonds of 14-carbon were reduced (for the amount reduced by 1 mg of the microsome protein for 1 minute).

Regarding `CCc1c2[n+](cc3c(OCc4ccccc4C(F)(F)F)c(OC)ccc13)CCc1cc(OC)c(OC)cc1-2` [Compound No. 33, 5,6-dihydro-2,3-dimethoxybenzo[a]-13-ethyl-10-methoxy-9-(2-trifluoromethyl)benzyloxybenzo[g]quinolizinium chloride], the pIC50 (commonly −log10 of the IC50, conventionally taken in molar units) under setting [1] is less than 4.00. Take `CCc1c2[n+](cc3c(OCc4cccc(Br)c4)c(OC)ccc13)CCc1cc(OC)c(OC)cc1-2` [Compound No. 34, 5,6-dihydro-2,3-dimethoxybenzo[a]-9-(3-bromo)-benzyloxy-13-ethyl-10-methoxybenzo[g]quinolizinium chloride]: under setting [2], the negative-log IC50 (pIC50) was 4.00 to 5.00. Turning to `CCc1c2[n+](cc3c(OCc4cc(OC)cc(OC)c4)c(OC)ccc13)CCc1cc(OC)c(OC)cc1-2` [Compound No. 35, 5,6-dihydro-2,3-dimethoxybenzo[a]-9-(3,5-dimethoxy)benzyloxy-13-ethyl-10-methoxybenzo[g]quinolizinium chloride], the negative logarithm of the IC50 (pIC50) under setting [2] was less than 4.00. `CCc1c2[n+](cc3c(OCc4ccc5ccccc5n4)c(OC)ccc13)CCc1cc(OC)c(OC)cc1-2` [Compound No. 36, 5,6-dihydro-2,3-dimethoxybenzo[a]-13-ethyl-10-methoxy-9-(quinolin-2-yl)methoxybenzo[g]quinolizinium chloride]: the pIC50 under setting [2] is 4.00 to 5.00.

On to `CCc1c2[n+](cc3c(OCc4cc(OC)c(OC)c(OC)c4)c(OC)ccc13)CCc1cc(OC)c(OC)cc1-2` [Compound No. 37, 5,6-dihydro-2,3-dimethoxybenzo[a]-13-ethyl-10-methoxy-9-(3,4,5-trimethoxy)benzyloxybenzo[g]quinolizinium chloride], for which, under setting [2], the negative-log IC50 (pIC50) was less than 4.00. For the compound `CCc1c2[n+](cc3c(OCc4ccc(CS(=O)(=O)c5ccccc5)cc4)c(OC)ccc13)CCc1cc(OC)c(OC)cc1-2` [Compound No. 38, 5,6-dihydro-2,3-dimethoxybenzo[a]-13-ethyl-10-methoxy-9-[4-(phenylsulfonylmethyl)benzyloxy]benzo[g]-quinolizinium chloride], under setting [2], the pIC50 was 4.00 to 5.00. In the case of `CCc1c2[n+](cc3c(OCc4ccc([N+](=O)[O-])o4)c(OC)ccc13)CCc1cc(OC)c(OC)cc1-2` [Compound No. 39, 5,6-dihydro-2,3-dimethoxybenzo[a]-13-ethyl-10-methoxy-9-(5-nitrofuran-2-yl)methoxybenzo[g]quinolizinium chloride], the pIC50 under setting [2] was 4.00 to 5.00. On to `CCc1c2[n+](cc3c(OCc4cc5c(cc4Cl)OCO5)c(OC)ccc13)CCc1cc(OC)c(OC)cc1-2` [Compound No. 40, 5,6-dihydro-2,3-dimethoxybenzo[a]-9-(6-chloro)-piperonyloxy-13-ethyl-10-methoxybenzo[g]quinolizinium chloride], for which the pIC50 under setting [2] was less than 4.00. `C=C(C)COc1c(OC)ccc2c(CC)c3[n+](cc12)CCc1cc(OC)c(OC)cc1-3` [Compound No. 41, 5,6-dihydro-2,3-dimethoxybenzo[a]-13-ethyl-10-methoxy-9-(2-methyl)propenoxybenzo[g]quinolizinium chloride]: the pIC50 under setting [2] is less than 4.00. For `CCc1c2[n+](cc3c(OCc4ccc(OC(F)(F)F)cc4)c(OC)ccc13)CCc1cc(OC)c(OC)cc1-2` [Compound No. 42, 5,6-dihydro-2,3-dimethoxybenzo[a]-13-ethyl-10-methoxy-9-(4-trifluoromethoxy)benzyloxybenzo[g]quinolizinium chloride], the negative-log IC50 (pIC50) under setting [2] is 4.00 to 5.00. Regarding `CCc1c2[n+](cc3c(OCc4ccccc4I)c(OC)ccc13)CCc1cc(OC)c(OC)cc1-2` [Compound No. 43, 5,6-dihydro-2,3-dimethoxybenzo[a]-13-ethyl-9-(2-iodo)benzyloxy-10-methoxybenzo[g]quinolizinium chloride], the pIC50 under setting [2] was 4.00 to 5.00. As to `C=C(COc1c(OC)ccc2c(CC)c3[n+](cc12)CCc1cc(OC)c(OC)cc1-3)C[Si](C)(C)C` [Compound No. 44, 5,6-dihydro-2,3-dimethoxybenzo[a]-13-ethyl-10-methoxy-9-[(3-trimethylsilyl)propen-2-yl]oxybenzo[g]quinolizinium chloride], under “Enzyme Activity (relative in vitro activity for sterol 14-reductase, IC50 class)”, the negative logarithm of the IC50 (pIC50) is less than 4.00. As for `CCCCCCCCCCCCOc1c(OC)ccc2c(CC)c3[n+](cc12)CCc1cc2c(cc1-3)OCO2` [Compound No. 45, 5,6-dihydro-2,3-methylenedioxybenzo[a]-9-dodecoxy-13-ethyl-10-methoxybenzo[g]quinolizinium iodide], under setting [2], the pIC50 is 4.00 to 5.00. Turning to `CCc1c2[n+](cc3c(OCc4ccc(C(C)(C)C)cc4)c(OC)ccc13)CCc1cc3c(cc1-2)OCO3` [Compound No. 46, 5,6-dihydro-2,3-methylenedioxybenzo[a]-9-[(4-tert-butyl)benzyloxy]-13-ethyl-10-methoxybenzo[g]quinolizinium iodide], the pIC50 under setting [2] was more than 6.00. With `CCc1c2[n+](cc3c(OCc4c(F)c(F)c(F)c(F)c4F)c(OC)ccc13)CCc1cc3c(cc1-2)OCO3` [Compound No. 47, 5,6-dihydro-2,3-methylenedioxybenzo[a]-13-ethyl-10-methoxy-9-(2,3,4,5,6-pentafluoro)benzyloxybenzo[g]-quinolizinium iodide], the pIC50 under setting [2] was more than 6.00. As for `CCc1c2[n+](cc3c(OCc4cc(OC)c(OC)cc4[N+](=O)[O-])c(OC)ccc13)CCc1cc3c(cc1-2)OCO3` [Compound No. 48, 5,6-dihydro-2,3-methylenedioxybenzo[a]-9-(4,5-dimethoxy-2-nitro)benzyloxy-13-ethyl-10-methoxybenzo[g]-quinolizinium iodide], under setting [2], the pIC50 was more than 6.00. As to `CCc1c2[n+](cc3c(OCc4ccc(C)c([N+](=O)[O-])c4)c(OC)ccc13)CCc1cc3c(cc1-2)OCO3` [Compound No. 49, 5,6-dihydro-2,3-methylenedioxybenzo[a]-13-ethyl-10-methoxy-9-(4-methyl-3-nitro)benzyloxybenzo[g]quinolizinium iodide], the pIC50 under setting [1] was 4.00 to 5.00.

`CCc1c2[n+](cc3c(OCc4ccc(C(F)(F)F)cc4)c(OC)ccc13)CCc1cc3c(cc1-2)OCO3` [Compound No. 50, 5,6-dihydro-2,3-methylenedioxybenzo[a]-13-ethyl-10-methoxy-9-(4-trifluoromethyl)benzyloxybenzo[g]quinolizinium iodide]: the negative logarithm of the IC50 (pIC50) under setting [2] was 4.00 to 5.00. Still for that read-out and setting: as for `CCc1c2[n+](cc3c(OCc4cccc(C(F)(F)F)c4)c(OC)ccc13)CCc1cc3c(cc1-2)OCO3` [Compound No. 51, 5,6-dihydro-2,3-methylenedioxybenzo[a]-13-ethyl-10-methoxy-9-(3-trifluoromethyl)benzyloxybenzo[g]quinolizinium iodide], the figure is 4.00 to 5.00; as for `CCc1c2[n+](cc3c(OCc4c(F)c(F)c(C(F)(F)F)c(F)c4F)c(OC)ccc13)CCc1cc3c(cc1-2)OCO3` [Compound No. 52, 5,6-dihydro-2,3-methylenedioxybenzo[a]-13-ethyl-10-methoxy-9-(2,3,5,6-tetrafluoro-4-trifluoromethyl)benzyloxybenzo[g]quinolizinium iodide], 4.00 to 5.00; as for `CCc1c2[n+](cc3c(OCc4ccc(-c5ccccc5)cc4)c(OC)ccc13)CCc1cc3c(cc1-2)OCO3` [Compound No. 53, 5,6-dihydro-2,3-methylenedioxybenzo[a]-13-ethyl-10-methoxy-9-(4-phenyl)benzloxybenzo[g]quinolizinium iodide], 4.00 to 5.00. For the compound `CCc1c2[n+](cc3c(OCc4ccc(Cl)nc4)c(OC)ccc13)CCc1cc3c(cc1-2)OCO3` [Compound No. 54, 5,6-dihydro-2,3-methylenedioxybenzo[a]-9-(6-chloropyridinyl-3-yl)methoxy-13-ethyl-10-methoxybenzo[g]quinolizinium iodide], the pIC50 under setting [2] is 4.00 to 5.00. Consider `CCOc1cc2c(cc1OCC)-c1c(CC)c3ccc(OC)c(OCc4ccc(C(C)(C)C)cc4)c3c[n+]1CC2` [Compound No. 55, 5,6-dihydro-2,3-diethoxybenzo[a]-9-[4-(tert-butyl)benzyloxy]-13-ethyl-10-methoxybenzo[g]quinolizinium chloride], for which the pIC50 under setting [2] is more than 6.00. For `CCOc1cc2c(cc1OCC)-c1c(CC)c3ccc(OC)c(OCc4c(F)c(F)c(F)c(F)c4F)c3c[n+]1CC2` [Compound No. 56, 5,6-dihydro-2,3-diethoxybenzo[a]-13-ethyl-10-methoxy-9-(2,3,4,5,6-pentafluoro)benzyloxybenzo[g]quinolizinium chloride], the pIC50 under setting [2] is more than 6.00. With `CCOc1cc2c(cc1OCC)-c1c(CC)c3ccc(OC)c(OCc4c(F)c(F)c(C(F)(F)F)c(F)c4F)c3c[n+]1CC2` [Compound No. 57, 5,6-dihydro-2,3-diethoxybenzo[a]-9-(2,3,5,6-tetrafluoro-4-trifluoromethyl)benzyloxy-13-ethyl-10-methoxy-benzo[g]-quinolizinium chloride], the pIC50 under setting [2] is more than 6.00.

In the case of `CCOc1cc2c(cc1OCC)-c1c(CC)c3ccc(OC)c(OCc4ccc(Cl)nc4)c3c[n+]1CC2` [Compound No. 58, 5,6-dihydro-2,3-diethoxybenzo[a]-9-(6-chloropyridinyl-3-yl)methoxy-13-ethyl-10-methoxybenzo [g]-quinolizinium chloride], the pIC50 under setting [2] was 4.00 to 5.00. Regarding `CCc1c2[n+](cc3c(OCc4c(F)c(F)c(F)c(F)c4F)c(OC)ccc13)CCc1cc(O)c(O)cc1-2` [Compound No. 59, 5,6-dihydro-2,3-dihydroxybenzo[a]-13-ethyl-10-methoxy-9-(2,3,4,5,6-pentafluoro)benzyloxybenzo[g]quinolizinium chloride], the pIC50 under setting [2] was 4.00 to 5.00.

(Values after patent US6028197A, “Dibenzo[a,g]quinolizinium derivatives and the salts thereof” (Hanwha Corporation, priority 1998, dated 2000).)
